The results in this text go back to patent US20240335420A1, “N-ACYLHYDRAZONE COMPOUNDS CAPABLE OF INHIBITING NAV 1.7 AND/OR NAV 1.8, PROCESSES FOR THE PREPARATION THEREOF, COMPOSITIONS, USES, METHODS FOR TREATMENT USING SAME AND KITS” (EUROFARMA LABORATÓRIOS S.A., priority 2021, published 2024).

SMILES strings stand for the structures.

Assay [1] deals with human sodium channels Nav 1.8 (Homo sapiens (Human), UniProt Q9Y5Y9). In words: Automated whole-cell voltage-clamp (ScreenPatch 384P), Nav 1.8 sodium current, Protocol 1. The following applies: Protocol 1 (holding −90 mV, 0.1 Hz); CHO cells expressing human Nav 1.8; room temperature; read-out: Nav1.8 IC50. It counts as cell-based. How it is done:
(§1) Biological assays were performed on Chinese hamster ovary (CHO) cells expressing the human sodium channels Nav 1.8 and Nav 1.7 stably.
(§2) The experimental voltage-clamp protocol using the whole cell configuration was established on the automated ScreenPatch® 384P platform (SP384PE, Nanion Technologies, Livingston, NJ) and recording of the results was performed with a Nanion 384-well Patch Clamp chip (NPC) (Nanion Technologies, Livingston, NJ).
(§3) Compounds of Formula (I), were diluted in eight concentrations in the extracellular solution composed of physiological saline, buffered with HEPES (mM): NaCl, 137; KCl, 4; CaCl2, 3.8; MgCl2, 1; HEPES, 10; Glucose, 10; pH 7.4. The […], 50; CsF, 90; MgCl2, 5; EGTA, 5; HEPES, 10; pH 7.2. The duration of exposure of each compound with the cells expressing Nav 1.7 or Nav 1.8 was at least five minutes and the assays were performed at room temperature.
(§4) The measurements of the sodium currents of Nav 1.8 and Nav 1.7 were obtained using the voltage protocols described below: • Protocol 1: A holding voltage of −90 mV was established followed by a voltage phase of 200 ms to −120 mV, followed by a voltage step of 10 mV for 1 second for Nav 1.8 or 0 mV for Nav 1.7, followed by a step of −100 mV for 20 ms, followed by a step of 20 ms for 10 mV for Nav 1.8 or 0 mV for Nav 1.7 (TP1A) before returning to the holding voltage of −90 mV. • Protocol 2: A holding voltage of −100 mV was established followed by an inactivation voltage step at −40 mV for 8 seconds, followed by a −100 mV step for […], followed by a 20 ms step for 10 mV for Nav 1.8 or 0 mV for Nav 1.7 (TP1A) before returning to the holding voltage of −100 mV.
(§5) Protocols were repeated at a frequency of 0.1 Hz (Protocol 1) or 0.05 Hz (Protocol 2) and current amplitude was quantified over the TP1A phase log. The variation in the peak amplitude of the current was evaluated according to the Formula described below, after exposure of the cells expressing the channels, at each concentration of the different compounds:
(§6) [formula] • where |TP1A, basal, and |TP1A, molecule represent the entry peaks of sodium currents into TP1A prior to exposure to the compound and in the presence of the compound, respectively.
(§7) The decrease in peak current amplitude, after exposure of the cells to the compounds, was used to calculate the percent relative blocking of the channels relative to the positive control according to the Formula below:
(§8) [formula] • where % V and % CP represent the averages of the values of current inhibition with a vehicle (DMSO) and positive controls, respectively. The sodium currents of the positive control were considered as 100%.
(§9) [formula] • where [Test] represents the concentration of the evaluated molecule, IC50 is the concentration of the compound that generates half of the maximum inhibition, N is the Hill's coefficient and % Block′ is the percentage of the sodium channel current (Nav 1.8 and Nav 1.7) inhibited at each concentration of the evaluated molecule. Data were obtained by non-linear least squares regression with XLfit for Excel (Microsoft, Redmond, WA).
(§10) Compounds were tested in at least one assay to obtain the IC50 value.

For assay [2], the target named is human sodium channels Nav 1.7 (Homo sapiens (Human), UniProt Q15858). Nature of the assay: Automated whole-cell voltage-clamp (ScreenPatch 384P), Nav 1.7 sodium current, Protocol 1. The assay is classed as cell-based. The following applies: Protocol 1 (holding −90 mV, 0.1 Hz); CHO cells expressing human Nav 1.7; room temperature; read-out: Nav1.7 IC50. How it is done: as §1, §2, §3, §4, §5, §6, §7, §8, §9, §10
human sodium channels Nav 1.7, sequence (Q15858 whole entry): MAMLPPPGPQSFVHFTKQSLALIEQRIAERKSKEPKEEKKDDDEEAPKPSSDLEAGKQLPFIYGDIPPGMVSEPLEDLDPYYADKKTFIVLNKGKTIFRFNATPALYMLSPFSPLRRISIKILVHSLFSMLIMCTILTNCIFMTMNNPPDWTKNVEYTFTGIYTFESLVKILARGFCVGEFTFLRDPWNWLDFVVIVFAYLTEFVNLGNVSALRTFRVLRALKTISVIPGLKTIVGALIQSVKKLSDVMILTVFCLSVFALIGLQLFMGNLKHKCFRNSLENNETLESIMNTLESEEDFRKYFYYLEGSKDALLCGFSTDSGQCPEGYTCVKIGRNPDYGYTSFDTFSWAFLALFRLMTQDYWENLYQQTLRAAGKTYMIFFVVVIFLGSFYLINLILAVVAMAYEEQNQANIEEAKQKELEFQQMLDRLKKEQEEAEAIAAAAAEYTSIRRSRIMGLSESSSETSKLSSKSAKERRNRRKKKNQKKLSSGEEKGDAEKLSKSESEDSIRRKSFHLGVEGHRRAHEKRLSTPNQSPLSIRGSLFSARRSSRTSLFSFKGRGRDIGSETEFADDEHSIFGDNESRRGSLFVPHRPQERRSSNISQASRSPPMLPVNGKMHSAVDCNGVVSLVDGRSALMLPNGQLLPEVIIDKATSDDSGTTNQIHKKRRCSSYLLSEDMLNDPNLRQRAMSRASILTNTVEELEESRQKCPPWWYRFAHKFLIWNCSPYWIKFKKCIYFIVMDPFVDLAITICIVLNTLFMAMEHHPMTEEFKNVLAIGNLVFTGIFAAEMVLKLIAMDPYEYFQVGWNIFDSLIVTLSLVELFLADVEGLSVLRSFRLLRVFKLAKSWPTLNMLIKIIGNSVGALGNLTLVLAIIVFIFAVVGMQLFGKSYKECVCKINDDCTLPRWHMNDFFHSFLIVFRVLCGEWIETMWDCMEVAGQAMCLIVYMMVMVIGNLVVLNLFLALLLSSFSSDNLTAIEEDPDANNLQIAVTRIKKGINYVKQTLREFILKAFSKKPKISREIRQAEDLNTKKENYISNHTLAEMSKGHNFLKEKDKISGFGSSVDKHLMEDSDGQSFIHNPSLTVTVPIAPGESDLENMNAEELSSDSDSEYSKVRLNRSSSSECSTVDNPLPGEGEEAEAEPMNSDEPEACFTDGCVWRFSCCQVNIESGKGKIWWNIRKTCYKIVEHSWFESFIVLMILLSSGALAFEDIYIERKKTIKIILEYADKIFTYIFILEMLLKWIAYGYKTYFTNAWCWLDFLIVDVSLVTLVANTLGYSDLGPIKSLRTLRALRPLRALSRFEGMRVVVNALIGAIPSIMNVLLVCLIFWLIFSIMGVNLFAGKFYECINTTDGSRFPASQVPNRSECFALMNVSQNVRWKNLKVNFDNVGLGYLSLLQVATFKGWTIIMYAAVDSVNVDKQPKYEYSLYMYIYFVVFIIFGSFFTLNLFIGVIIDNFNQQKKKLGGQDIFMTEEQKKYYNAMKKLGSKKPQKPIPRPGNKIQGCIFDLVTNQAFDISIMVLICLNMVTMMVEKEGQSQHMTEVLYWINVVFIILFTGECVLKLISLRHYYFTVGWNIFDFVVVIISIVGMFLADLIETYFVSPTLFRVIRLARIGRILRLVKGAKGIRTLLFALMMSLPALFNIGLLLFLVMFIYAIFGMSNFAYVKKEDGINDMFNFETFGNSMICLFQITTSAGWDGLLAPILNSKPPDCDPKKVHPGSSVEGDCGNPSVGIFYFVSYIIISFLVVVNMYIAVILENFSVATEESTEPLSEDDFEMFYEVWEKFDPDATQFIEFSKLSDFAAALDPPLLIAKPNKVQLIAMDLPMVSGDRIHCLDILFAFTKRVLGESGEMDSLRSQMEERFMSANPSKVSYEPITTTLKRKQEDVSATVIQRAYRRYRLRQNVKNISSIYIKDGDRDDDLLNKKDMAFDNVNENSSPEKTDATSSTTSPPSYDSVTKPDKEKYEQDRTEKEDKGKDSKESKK

human sodium channels Nav 1.8, sequence (Q9Y5Y9 whole entry): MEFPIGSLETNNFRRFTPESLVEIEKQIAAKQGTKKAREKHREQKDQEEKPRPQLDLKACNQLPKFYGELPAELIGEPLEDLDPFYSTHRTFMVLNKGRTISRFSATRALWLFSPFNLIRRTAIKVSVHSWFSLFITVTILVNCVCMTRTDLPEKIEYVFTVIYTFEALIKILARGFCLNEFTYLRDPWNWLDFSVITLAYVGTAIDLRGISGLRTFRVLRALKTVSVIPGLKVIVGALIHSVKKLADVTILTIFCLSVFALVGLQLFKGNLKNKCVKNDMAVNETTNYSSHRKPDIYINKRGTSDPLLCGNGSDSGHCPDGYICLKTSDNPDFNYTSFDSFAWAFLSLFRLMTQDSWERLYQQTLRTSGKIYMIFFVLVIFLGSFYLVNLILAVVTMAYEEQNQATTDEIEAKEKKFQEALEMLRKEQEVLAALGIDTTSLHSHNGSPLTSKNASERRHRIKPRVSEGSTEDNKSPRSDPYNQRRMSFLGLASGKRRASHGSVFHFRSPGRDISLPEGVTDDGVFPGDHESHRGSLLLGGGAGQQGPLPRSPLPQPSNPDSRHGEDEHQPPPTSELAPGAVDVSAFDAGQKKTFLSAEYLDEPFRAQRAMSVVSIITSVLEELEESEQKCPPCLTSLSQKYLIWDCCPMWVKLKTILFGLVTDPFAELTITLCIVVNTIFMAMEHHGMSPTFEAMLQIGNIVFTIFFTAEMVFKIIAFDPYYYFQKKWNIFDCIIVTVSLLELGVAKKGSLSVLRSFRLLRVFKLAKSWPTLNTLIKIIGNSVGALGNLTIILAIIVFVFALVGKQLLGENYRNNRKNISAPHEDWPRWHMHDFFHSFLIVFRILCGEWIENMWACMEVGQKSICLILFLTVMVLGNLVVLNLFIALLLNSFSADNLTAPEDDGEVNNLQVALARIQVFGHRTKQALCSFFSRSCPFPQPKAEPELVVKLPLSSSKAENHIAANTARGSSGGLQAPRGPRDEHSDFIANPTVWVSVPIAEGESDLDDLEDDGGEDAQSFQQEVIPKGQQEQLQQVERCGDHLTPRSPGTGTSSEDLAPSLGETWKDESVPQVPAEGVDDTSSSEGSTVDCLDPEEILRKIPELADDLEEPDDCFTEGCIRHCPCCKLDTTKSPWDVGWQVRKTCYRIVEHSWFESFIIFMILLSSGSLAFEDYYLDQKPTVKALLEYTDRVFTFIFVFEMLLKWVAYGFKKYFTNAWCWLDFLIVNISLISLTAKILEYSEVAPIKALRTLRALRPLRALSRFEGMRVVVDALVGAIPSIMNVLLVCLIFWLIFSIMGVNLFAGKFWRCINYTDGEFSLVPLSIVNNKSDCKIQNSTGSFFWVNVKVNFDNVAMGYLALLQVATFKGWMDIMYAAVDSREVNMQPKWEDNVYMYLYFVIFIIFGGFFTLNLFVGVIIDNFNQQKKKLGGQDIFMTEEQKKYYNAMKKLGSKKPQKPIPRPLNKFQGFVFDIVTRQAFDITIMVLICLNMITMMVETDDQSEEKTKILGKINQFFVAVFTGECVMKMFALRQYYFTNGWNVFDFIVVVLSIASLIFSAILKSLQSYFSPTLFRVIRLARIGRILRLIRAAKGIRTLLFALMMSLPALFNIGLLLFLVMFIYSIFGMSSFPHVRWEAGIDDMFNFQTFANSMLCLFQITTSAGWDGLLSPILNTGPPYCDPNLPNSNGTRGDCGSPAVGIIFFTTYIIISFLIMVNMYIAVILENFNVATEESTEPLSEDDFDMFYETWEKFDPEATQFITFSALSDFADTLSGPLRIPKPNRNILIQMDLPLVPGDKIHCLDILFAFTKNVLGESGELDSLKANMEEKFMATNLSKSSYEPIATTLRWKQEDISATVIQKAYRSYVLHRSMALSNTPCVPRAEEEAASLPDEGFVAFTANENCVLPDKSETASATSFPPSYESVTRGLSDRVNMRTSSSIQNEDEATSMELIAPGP

Take `CCCOc1ccc(-c2cc(C(=O)N/N=C/c3cc(OC)cc(OC)c3)ccn2)cc1` [Compound 30, (E)-N′-(3,5-dimethoxybenzylidene)-2-(4-propoxyphenyl) isonicotinohydrazide]: the IC50 in assay [1] and in assay [2] was greater than 10 µM each time.

As to `CCOc1ccc(-c2cccc(C(=O)N/N=C/c3ccccc3F)n2)cc1` [Compound 32, (E)-6-(4-ethoxyphenyl)-N′-(2-fluorobenzylidene) picolinohydrazide], the results for the half-maximal inhibitory concentration (IC50) in assay [1] and in assay [2] were 1.36 µM and 1.04 µM, respectively.

For the molecule `CCOc1ccc(-c2cccc(C(=O)N/N=C/c3ccccc3Cl)n2)cc1` [Compound 33, (E)-N′-(2-chlorobenzylidene)-6-(4-ethoxyphenyl) picolinohydrazide], the IC50 in assay [1] and in assay [2] was greater than 10 µM each time.

Turning to `CCOc1ccc(-c2cccc(C(=O)N/N=C/c3c(Cl)cccc3Cl)n2)cc1` [Compound 34, (E)-N′-(2,6-dichlorobenzylidene)-6-(4-ethoxyphenyl) picolinohydrazide], the IC50 in assay [1] and in assay [2] was greater than 10 µM each time.

Take `CCOc1ccc(-c2cccc(C(=O)N/N=C/c3c(F)cccc3Cl)n2)cc1` [Compound 35, (E)-N′-(2-chloro-6-fluorobenzylidene)-6-(4-ethoxyphenyl) picolinohydrazide]: the concentration for half-maximal inhibition (IC50) in assay [1] and in assay [2] was greater than 10 µM throughout.

For the molecule `CCOc1ccc(-c2cccc(C(=O)N/N=C/c3ccccc3OC)n2)cc1` [Compound 36, (E)-6-(4-ethoxyphenyl)-N′-(2-methoxybenzylidene) picolinohydrazide], the IC50 in assay [1] worked out at 8.43 µM; in assay [2], 7.06 µM.

`CCOc1ccc(-c2cccc(C(=O)N/N=C/c3cccnc3N3CCOCC3)n2)cc1` [Compound 37, (E)-6-(4-ethoxyphenyl)-N′-((2-morpholinopyridin-3-yl)methylene) picolinohydrazide]: the IC50 in assay [1] was greater than 10 µM; in assay [2] it was 8.76 µM.

On to `COc1cc(/C=N/NC(=O)c2cc(-c3ccc(Cl)cc3)ccn2)cc(OC)c1` [Compound 42, (E)-4-(4-chlorophenyl)-N′-(3,5-dimethoxybenzylidene) picolinohydrazide], for which the IC50 in assay [1] and in assay [2] was greater than 10 µM each time.

On to `O=C(N/N=C/c1cccs1)c1cc(-c2ccc(Cl)cc2)ccn1` [Compound 43, (E)-4-(4-chlorophenyl)-N′-(thiophen-2-ylmethylene) picolinohydrazide], for which the IC50 in assay [1] and in assay [2] was greater than 10 µM throughout.

For `CCOc1ccc(-c2ccnc(C(=O)N/N=C/c3cc(OC)cc(OC)c3)c2)cc1` [Compound 44, (E)-N′-(3,5-dimethoxybenzylidene)-4-(4-ethoxyphenyl) picolinohydrazide], the IC50 in assay [1] and in assay [2] was greater than 10 µM throughout.

Consider `CCOc1ccc(-c2ccnc(C(=O)N/N=C/c3cccs3)c2)cc1` [Compound 45, (E)-4-(4-ethoxyphenyl)-N′-(thiophen-2-ylmethylene) picolinohydrazide], for which the IC50 in assay [1] and in assay [2] was greater than 10 µM in each case.

As to `COc1cc(/C=N/NC(=O)c2cc(-c3ccc(OC(C)C)cc3)ccn2)cc(OC)c1` [Compound 46, (E)-N′-(3,5-dimethoxybenzylidene)-4-(4-isopropoxyphenyl) picolinohydrazide], the IC50 in assay [1] and in assay [2] was greater than 10 µM in each case.

`CC(C)Oc1ccc(-c2ccnc(C(=O)N/N=C/c3cccs3)c2)cc1` [Compound 47, (E)-4-(4-isopropoxyphenyl)-N′-(thiophen-2-ylmethylene) picolinohydrazide]: the IC50 in assay [1] and in assay [2] was greater than 10 µM throughout.

Take `COc1cc(/C=N/NC(=O)c2cc(-c3ccc(OC4CCCC4)cc3)ccn2)cc(OC)c1` [Compound 48, (E)-4-(4-(cyclopentyloxy)phenyl)-N′-(3,5-dimethoxybenzylidene) picolinohydrazide]: the IC50 in assay [1] and in assay [2] was greater than 10 µM throughout.

Take `COc1cc(/C=N/NC(=O)c2cc(-c3ccc(OC(F)(F)F)cc3)ccn2)cc(OC)c1` [Compound 49, (E)-N′-(3,5-dimethoxybenzylidene)-4-(4-(trifluoromethoxy)phenyl) picolinohydrazide]: the IC50 in assay [1] and in assay [2] was greater than 10 µM each time.

Regarding `O=C(N/N=C/c1cccs1)c1cc(-c2ccc(OC3CCCC3)cc2)ccn1` [Compound 50, (E)-4-(4-(cyclopentyloxy)phenyl)-N′-(thiophen-2-ylmethylene) picolinohydrazide], the IC50 in assay [1] and in assay [2] was greater than 10 µM each time.

Take `O=C(N/N=C/c1cccs1)c1cc(-c2ccc(OC(F)(F)F)cc2)ccn1` [Compound 51, (E)-N′-(thiophen-2-ylmethylene)-4-(4-(trifluoromethoxy)phenyl) picolinohydrazide]: the IC50 in assay [1] and in assay [2] was greater than 10 µM in each case.

On to `COc1cc(/C=N/NC(=O)c2ccnc(-c3ccc(Cl)cc3)n2)cc(OC)c1` [Compound 52, (E)-2-(4-chlorophenyl)-N′-(3,5-dimethoxybenzylidene)pyrimidine-4-carbohydrazide], for which the IC50 in assay [1] and in assay [2] was greater than 10 µM throughout.

Regarding `CCOc1ccc(-c2nccc(C(=O)N/N=C/c3cc(OC)cc(OC)c3)n2)cc1` [Compound 53, (E)-N′-(3,5-dimethoxybenzylidene)-2-(4-ethoxyphenyl)pyrimidine-4-carbohydrazide], the IC50 in assay [1] and in assay [2] was greater than 10 µM in each case.

Turning to `COc1cc(/C=N/NC(=O)c2ccnc(-c3ccc(OC4CCCC4)cc3)n2)cc(OC)c1` [Compound 55, (E)-2-(4-(cyclopentyloxy)phenyl)-N′-(3,5-dimethoxybenzylidene)pyrimidine-4-carbohydrazide], the IC50 in assay [1] and in assay [2] was greater than 10 µM throughout.

For `COc1cc(/C=N/NC(=O)c2ccnc(-c3ccc(OC(F)(F)F)cc3)n2)cc(OC)c1` [Compound 56, (E)-N′-(3,5-dimethoxybenzylidene)-2-(4-(trifluoromethoxy)phenyl) pyrimidine-4-carbohydrazide], the IC50 in assay [1] and in assay [2] was greater than 10 µM throughout.

Take `COc1ccc(-c2nccc(C(=O)N/N=C/c3cc(OC)cc(OC)c3)n2)cc1` [Compound 57, (E)-N′-(3,5-dimethoxybenzylidene)-2-(4-methoxyphenyl)pyrimidine-4-carbohydrazide]: the IC50 in assay [1] and in assay [2] was greater than 10 µM each time.

In the case of `CCCOc1ccc(-c2nccc(C(=O)N/N=C/c3cc(OC)cc(OC)c3)n2)cc1` [Compound 58, (E)-N′-(3,5-dimethoxybenzylidene)-2-(4-propoxyphenyl)pyrimidine-4-carbohydrazide], the IC50 in assay [1] and in assay [2] was greater than 10 µM throughout.

`CCCCOc1ccc(-c2nccc(C(=O)N/N=C/c3cc(OC)cc(OC)c3)n2)cc1` [Compound 59, (E)-2-(4-butoxyphenyl)-N′-(3,5-dimethoxybenzylidene)pyrimidine-4-carbohydrazide]: the IC50 in assay [1] and in assay [2] was greater than 10 µM each time.

With `CCCCOc1ccc(-c2ccnc(C(=O)N/N=C/c3cc(OC)cc(OC)c3)n2)cc1` [Compound 67, (E)-4-(4-butoxyphenyl)-N′-(3,5-dimethoxybenzylidene)pyrimidine-2-carbohydrazide], the IC50 in assay [1] and in assay [2] was greater than 10 µM in each case.

Regarding `COc1cc(/C=N/N(C)C(=O)c2ccc(-c3ccc(Cl)cc3)o2)cc(OC)c1` [Compound 78, (E)-5-(4-chlorophenyl)-N′-(3,5-dimethoxybenzylidene)-N′-methylfuran-2-carbohydrazide], the IC50 in assay [1] and in assay [2] was greater than 30 µM each time.

The IC50 is the point on the concentration scale where inhibition reaches its midpoint.
